The values that follow are results of earlier work, collected in patent US6610702B2, “Ammonium salts of inositol hexaphosphate, and uses thereof” (GMP Oxycell, Inc., priority 2000, dated 2003).

Like-named read-outs stand apart in the source and are kept apart here.

One data set has as its target stripped hemoglobin (Homo sapiens, UniProt P68871). As to conditions: pH 7.4, cited from earlier work.
A further data set deals with human RBCs. As to conditions: IHP encapsulated in human RBCs by continuous-flow electroporation; cited from earlier work.
Data set [1] concerns the target allosteric site on hemoglobin (Homo sapiens, UniProt P68871). The note with it: displaces hemoglobin-bound 2,3-DPG; cited from earlier work.
For data set [2] the following is noted: buffer 100 mM sodium phosphate, pH 7.0; cited from earlier work.

Chain of stripped hemoglobin (P68871 2-147 limits assumed): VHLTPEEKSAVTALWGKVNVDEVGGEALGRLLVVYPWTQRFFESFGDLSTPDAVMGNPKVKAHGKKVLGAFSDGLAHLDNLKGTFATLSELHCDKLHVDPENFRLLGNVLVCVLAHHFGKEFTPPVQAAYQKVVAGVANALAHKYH
Chain of stripped hemoglobin (P69905 2-142 partner limits assumed): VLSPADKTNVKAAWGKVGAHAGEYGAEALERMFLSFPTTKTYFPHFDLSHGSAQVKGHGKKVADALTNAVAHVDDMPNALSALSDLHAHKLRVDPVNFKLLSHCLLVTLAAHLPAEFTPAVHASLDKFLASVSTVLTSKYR
Chain of allosteric site on hemoglobin (P68871 2-147 limits assumed): as the sequence (P68871 2-147 limits assumed) above
Chain of allosteric site on hemoglobin (P69905 2-142 partner limits assumed): as the sequence (P69905 2-142 partner limits assumed) above

Take `O=P(O)(O)O[C@H]1[C@H](OP(=O)(O)O)[C@@H](OP(=O)(O)O)[C@H](OP(=O)(O)O)[C@@H](OP(=O)(O)O)[C@H]1OP(=O)(O)O` [IHP, inositol hexaphosphate]: the “half-saturation pressure P(O2) (½) of stripped hemoglobin” value on stripped hemoglobin (25 C., stripped hemoglobin alone 4.3) is recorded as 48.4 mm Hg; at stripped hemoglobin (37 C., stripped hemoglobin alone 9.3) it was 96.4 mm Hg. Moreover, in the data set with human RBCs, the “P50 of modified RBCs” value is recorded as “approximately 50 torr”. The “affinity for the allosteric site relative to 2,3-DPG” value in data set [1] was “one-thousand times greater affinity”.

In the case of `Cc1cn([C@H]2CC(O)[C@@H](CO)O2)c(=O)[nH]c1=O` (some centres unmarked), the Octanol/buffer partition coefficient in data set [2] is reported as 0.064.
